According to ChEMBL document CHEMBL5113398, “Design and synthesis of new quinoline derivatives as selective C-RAF kinase inhibitors with potent anticancer activity” (Eur J Med Chem, 2022):

Tests used:
A549 [1] = test: Anticancer activity against human A549 cells assessed as total cell growth inhibition incubated for 48 hrs by SRB assay; assay type: functional
HT-29 = test: Anticancer activity against human HT-29 cells assessed as cell growth inhibition incubated for 48 hrs by SRB assay; assay type: functional
HCT-116 = test: Anticancer activity against human HCT-116 cells assessed as total cell growth inhibition incubated for 48 hrs by SRB assay; assay type: functional
OVCAR-5 [2] = test: Anticancer activity against human OVCAR-5 cells assessed as cell growth inhibition incubated for 48 hrs by SRB assay; assay type: functional
M14 = test: Anticancer activity against human M14 cells assessed as total cell growth inhibition incubated for 48 hrs by SRB assay; assay type: functional
[3] = target: Dual specificity mitogen-activated protein kinase kinase 2 (Homo sapiens) (UniProt P36507); test: Inhibition of MEK2 (unknown origin) at 1 uM in presence of ATP by hotspot kinase assay
Dual specificity mitogen-activated protein kinase kinase 2 (Homo sapiens), sequence (P36507 whole entry): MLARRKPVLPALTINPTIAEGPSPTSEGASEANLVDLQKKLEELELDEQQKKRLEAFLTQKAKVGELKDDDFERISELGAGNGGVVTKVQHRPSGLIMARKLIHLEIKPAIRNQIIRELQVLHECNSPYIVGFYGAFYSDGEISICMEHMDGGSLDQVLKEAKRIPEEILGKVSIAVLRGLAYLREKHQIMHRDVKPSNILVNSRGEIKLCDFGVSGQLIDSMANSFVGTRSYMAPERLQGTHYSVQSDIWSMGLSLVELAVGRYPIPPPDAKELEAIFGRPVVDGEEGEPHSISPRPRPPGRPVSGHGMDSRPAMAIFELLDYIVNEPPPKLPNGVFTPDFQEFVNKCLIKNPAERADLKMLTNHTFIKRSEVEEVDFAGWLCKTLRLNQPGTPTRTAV

NCI-H226 [4] = test: Anticancer activity against human NCI-H226 cells assessed as total cell growth inhibition incubated for 48 hrs by SRB assay; assay type: functional
BT-549 [5] = test: Anticancer activity against human BT-549 cells assessed as total cell growth inhibition incubated for 48 hrs by SRB assay; assay type: functional
TK-10 = test: Anticancer activity against human TK-10 cells assessed as total cell growth inhibition incubated for 48 hrs by SRB assay; assay type: functional
SF-295 [6] = test: Anticancer activity against human SF-295 cells assessed as cell growth inhibition incubated for 48 hrs by SRB assay; assay type: functional
A549 [7] = test: Anticancer activity against human A549 cells assessed as cell growth inhibition incubated for 48 hrs by SRB assay; assay type: functional
MDA-MB-435 = test: Anticancer activity against human MDA-MB-435 cells assessed as cell growth inhibition incubated for 48 hrs by SRB assay; assay type: functional
[8] = target: Vascular endothelial growth factor receptor 2 (Homo sapiens) (UniProt P35968); test: Inhibition of KDR (unknown origin) at 1 uM in presence of ATP by hotspot kinase assay
Vascular endothelial growth factor receptor 2 (Homo sapiens), sequence (P35968 whole entry): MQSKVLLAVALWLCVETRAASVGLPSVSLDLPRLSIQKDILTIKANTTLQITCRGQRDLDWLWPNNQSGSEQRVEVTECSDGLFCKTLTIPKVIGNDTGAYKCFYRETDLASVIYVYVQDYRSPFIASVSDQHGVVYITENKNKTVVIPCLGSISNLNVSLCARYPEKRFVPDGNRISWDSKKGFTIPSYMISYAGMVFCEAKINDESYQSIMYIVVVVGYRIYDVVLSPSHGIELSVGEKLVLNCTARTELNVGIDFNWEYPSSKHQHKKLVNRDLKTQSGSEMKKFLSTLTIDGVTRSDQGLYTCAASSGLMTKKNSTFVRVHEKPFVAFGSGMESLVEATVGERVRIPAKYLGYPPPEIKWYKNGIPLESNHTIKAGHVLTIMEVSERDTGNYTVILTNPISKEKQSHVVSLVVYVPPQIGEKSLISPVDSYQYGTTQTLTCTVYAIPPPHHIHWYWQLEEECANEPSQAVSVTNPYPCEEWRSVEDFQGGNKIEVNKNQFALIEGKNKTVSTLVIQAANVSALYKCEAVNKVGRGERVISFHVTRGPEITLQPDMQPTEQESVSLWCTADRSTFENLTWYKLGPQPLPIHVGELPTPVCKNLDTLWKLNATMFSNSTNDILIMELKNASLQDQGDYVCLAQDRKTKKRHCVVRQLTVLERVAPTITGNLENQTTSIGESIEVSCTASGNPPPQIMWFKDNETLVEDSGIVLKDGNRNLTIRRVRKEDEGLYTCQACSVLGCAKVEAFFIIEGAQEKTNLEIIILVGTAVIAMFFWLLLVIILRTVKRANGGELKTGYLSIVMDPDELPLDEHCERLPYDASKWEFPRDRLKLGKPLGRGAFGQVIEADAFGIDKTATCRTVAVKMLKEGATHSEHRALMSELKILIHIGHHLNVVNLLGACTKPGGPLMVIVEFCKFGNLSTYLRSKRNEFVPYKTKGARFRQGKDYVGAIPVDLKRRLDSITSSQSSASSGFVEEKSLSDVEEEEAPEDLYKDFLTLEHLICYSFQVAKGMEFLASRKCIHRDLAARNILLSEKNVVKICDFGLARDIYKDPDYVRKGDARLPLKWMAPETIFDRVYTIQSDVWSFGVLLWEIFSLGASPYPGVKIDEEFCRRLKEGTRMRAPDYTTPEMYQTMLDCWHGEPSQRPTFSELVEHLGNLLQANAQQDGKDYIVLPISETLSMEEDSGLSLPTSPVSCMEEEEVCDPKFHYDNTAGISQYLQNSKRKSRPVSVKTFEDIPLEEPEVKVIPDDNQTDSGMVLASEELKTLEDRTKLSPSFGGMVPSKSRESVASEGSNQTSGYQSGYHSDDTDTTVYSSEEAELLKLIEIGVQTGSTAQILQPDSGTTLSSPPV

UACC-62 [9] = test: Anticancer activity against human UACC-62 cells assessed as total cell growth inhibition incubated for 48 hrs by SRB assay; assay type: functional
SK-OV-3 = test: Anticancer activity against human SK-OV-3 cells assessed as total cell growth inhibition incubated for 48 hrs by SRB assay; assay type: functional
SN12C = test: Anticancer activity against human SN12C cells assessed as cell growth inhibition incubated for 48 hrs by SRB assay; assay type: functional
BT-549 [10] = test: Anticancer activity against human BT-549 cells assessed as cell growth inhibition incubated for 48 hrs by SRB assay; assay type: functional
COLO 205 = test: Anticancer activity against human COLO 205 cells assessed as cell growth inhibition incubated for 48 hrs by SRB assay; assay type: functional
KM12 = test: Anticancer activity against human KM12 cells assessed as cell growth inhibition incubated for 48 hrs by SRB assay; assay type: functional
OVCAR-5 [11] = test: Anticancer activity against human OVCAR-5 cells assessed as total cell growth inhibition incubated for 48 hrs by SRB assay; assay type: functional
SF-295 [12] = test: Anticancer activity against human SF-295 cells assessed as total cell growth inhibition incubated for 48 hrs by SRB assay; assay type: functional
NCI-H226 [13] = test: Anticancer activity against human NCI-H226 cells assessed as cell growth inhibition incubated for 48 hrs by SRB assay; assay type: functional
HCT-15 [14] = test: Anticancer activity against human HCT-15 cells assessed as total cell growth inhibition incubated for 48 hrs by SRB assay; assay type: functional
CAKI-1 = test: Anticancer activity against human CAKI-1 cells assessed as total cell growth inhibition incubated for 48 hrs by SRB assay; assay type: functional
MDA-MB-231 = test: Anticancer activity against human MDA-MB-231 cells assessed as cell growth inhibition incubated for 48 hrs by SRB assay; assay type: functional
PC-3 = test: Anticancer activity against human PC-3 cells assessed as total cell growth inhibition incubated for 48 hrs by SRB assay; assay type: functional
[15] = target: Platelet-derived growth factor receptor alpha (Homo sapiens) (UniProt P16234); test: Inhibition of PDGFRalpha (unknown origin) at 1 uM in presence of ATP by hotspot kinase assay
Platelet-derived growth factor receptor alpha (Homo sapiens), sequence (P16234 whole entry): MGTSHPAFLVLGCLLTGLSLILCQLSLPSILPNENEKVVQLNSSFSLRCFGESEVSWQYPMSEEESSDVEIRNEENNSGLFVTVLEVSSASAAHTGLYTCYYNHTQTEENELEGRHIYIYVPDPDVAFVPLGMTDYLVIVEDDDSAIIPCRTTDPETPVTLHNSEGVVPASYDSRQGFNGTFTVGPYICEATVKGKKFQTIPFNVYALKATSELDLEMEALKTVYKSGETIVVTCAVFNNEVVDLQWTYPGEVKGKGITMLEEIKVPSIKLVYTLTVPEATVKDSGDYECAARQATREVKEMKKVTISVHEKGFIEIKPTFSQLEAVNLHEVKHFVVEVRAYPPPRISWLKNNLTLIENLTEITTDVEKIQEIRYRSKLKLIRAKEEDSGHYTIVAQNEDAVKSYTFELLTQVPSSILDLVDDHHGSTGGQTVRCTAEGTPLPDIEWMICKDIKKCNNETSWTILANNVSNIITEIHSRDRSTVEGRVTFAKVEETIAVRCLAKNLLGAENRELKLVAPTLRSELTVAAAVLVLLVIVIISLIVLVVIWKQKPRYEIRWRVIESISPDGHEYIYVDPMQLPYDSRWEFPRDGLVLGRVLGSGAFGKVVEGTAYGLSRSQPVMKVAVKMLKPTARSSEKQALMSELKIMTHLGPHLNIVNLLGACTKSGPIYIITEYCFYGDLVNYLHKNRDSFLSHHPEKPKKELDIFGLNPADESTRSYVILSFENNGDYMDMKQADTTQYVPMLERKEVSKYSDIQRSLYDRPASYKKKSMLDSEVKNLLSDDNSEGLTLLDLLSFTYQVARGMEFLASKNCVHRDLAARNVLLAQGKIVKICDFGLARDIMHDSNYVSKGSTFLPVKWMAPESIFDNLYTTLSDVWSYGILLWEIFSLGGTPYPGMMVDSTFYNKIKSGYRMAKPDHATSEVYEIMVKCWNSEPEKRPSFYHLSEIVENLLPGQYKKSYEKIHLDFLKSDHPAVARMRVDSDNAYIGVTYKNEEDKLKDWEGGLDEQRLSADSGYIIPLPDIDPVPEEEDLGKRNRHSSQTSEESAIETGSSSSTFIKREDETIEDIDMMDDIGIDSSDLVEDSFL

UACC-62 [16] = test: Anticancer activity against human UACC-62 cells assessed as cell growth inhibition incubated for 48 hrs by SRB assay; assay type: functional
SF-268 = test: Anticancer activity against human SF-268 cells assessed as total cell growth inhibition incubated for 48 hrs by SRB assay; assay type: functional
SNB-19 [17] = test: Anticancer activity against human SNB-19 cells assessed as cell growth inhibition incubated for 48 hrs by SRB assay; assay type: functional
NCI-H522 = test: Anticancer activity against human NCI-H522 cells assessed as total cell growth inhibition incubated for 48 hrs by SRB assay; assay type: functional
EKVX = test: Anticancer activity against human EKVX cells assessed as cell growth inhibition incubated for 48 hrs by SRB assay; assay type: functional
[18] = target: Hepatocyte growth factor receptor (Homo sapiens) (UniProt P08581); test: Inhibition of MET (unknown origin) at 1 uM in presence of ATP by hotspot kinase assay
Hepatocyte growth factor receptor (Homo sapiens), sequence (P08581 whole entry): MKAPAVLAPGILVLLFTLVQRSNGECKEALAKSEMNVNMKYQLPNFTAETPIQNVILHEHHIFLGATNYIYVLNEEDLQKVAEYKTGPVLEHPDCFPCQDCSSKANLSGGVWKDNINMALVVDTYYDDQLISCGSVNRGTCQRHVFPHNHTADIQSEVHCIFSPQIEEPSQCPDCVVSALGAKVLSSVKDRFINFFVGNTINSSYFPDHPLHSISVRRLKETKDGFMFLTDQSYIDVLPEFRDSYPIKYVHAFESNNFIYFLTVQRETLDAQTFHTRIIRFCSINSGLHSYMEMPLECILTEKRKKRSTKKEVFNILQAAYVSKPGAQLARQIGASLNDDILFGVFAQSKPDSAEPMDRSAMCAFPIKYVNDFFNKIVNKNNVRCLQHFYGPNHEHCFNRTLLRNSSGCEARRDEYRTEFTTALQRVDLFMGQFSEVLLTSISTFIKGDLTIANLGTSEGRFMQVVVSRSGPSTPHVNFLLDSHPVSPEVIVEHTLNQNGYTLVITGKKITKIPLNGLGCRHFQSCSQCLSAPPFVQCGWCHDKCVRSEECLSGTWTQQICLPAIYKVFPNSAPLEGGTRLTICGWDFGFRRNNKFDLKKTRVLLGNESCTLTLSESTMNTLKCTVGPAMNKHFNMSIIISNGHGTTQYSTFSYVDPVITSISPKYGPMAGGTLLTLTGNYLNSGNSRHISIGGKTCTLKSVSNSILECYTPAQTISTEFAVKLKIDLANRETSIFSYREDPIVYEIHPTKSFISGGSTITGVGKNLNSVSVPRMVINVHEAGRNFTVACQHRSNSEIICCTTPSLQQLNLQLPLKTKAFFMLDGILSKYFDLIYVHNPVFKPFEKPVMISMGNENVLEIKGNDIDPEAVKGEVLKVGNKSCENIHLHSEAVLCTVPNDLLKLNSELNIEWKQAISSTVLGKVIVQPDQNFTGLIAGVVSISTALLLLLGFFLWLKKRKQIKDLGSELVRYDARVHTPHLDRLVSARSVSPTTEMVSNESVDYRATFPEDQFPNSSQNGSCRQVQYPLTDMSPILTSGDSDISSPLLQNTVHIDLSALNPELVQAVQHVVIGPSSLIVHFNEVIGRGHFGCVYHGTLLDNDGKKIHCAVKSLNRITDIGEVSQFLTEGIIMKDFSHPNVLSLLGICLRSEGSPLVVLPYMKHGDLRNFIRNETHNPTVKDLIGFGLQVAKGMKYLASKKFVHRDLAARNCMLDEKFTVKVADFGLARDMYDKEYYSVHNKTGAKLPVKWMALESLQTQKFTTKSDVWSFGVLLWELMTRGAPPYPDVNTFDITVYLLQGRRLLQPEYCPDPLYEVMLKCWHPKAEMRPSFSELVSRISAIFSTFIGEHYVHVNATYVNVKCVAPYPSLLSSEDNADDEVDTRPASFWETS

HOP-62 = test: Anticancer activity against human HOP-62 cells assessed as cell growth inhibition incubated for 48 hrs by SRB assay; assay type: functional
HL-60 = test: Anticancer activity against human HL-60 cells assessed as cell growth inhibition incubated for 48 hrs by SRB assay; assay type: functional
MOLT-4 = test: Anticancer activity against human MOLT-4 cells assessed as total cell growth inhibition incubated for 48 hrs by SRB assay; assay type: functional
SK-MEL-5 [19] = test: Anticancer activity against human SK-MEL-5 cells assessed as total cell growth inhibition incubated for 48 hrs by SRB assay; assay type: functional
Malme-3M = test: Anticancer activity against human Malme-3M cells assessed as cell growth inhibition incubated for 48 hrs by SRB assay; assay type: functional
OVCAR-4 = test: Anticancer activity against human OVCAR-4 cells assessed as total cell growth inhibition incubated for 48 hrs by SRB assay; assay type: functional
SK-MEL-5 [20] = test: Anticancer activity against human SK-MEL-5 cells assessed as cell growth inhibition incubated for 48 hrs by SRB assay; assay type: functional
T47D = test: Anticancer activity against human T47D cells assessed as cell growth inhibition incubated for 48 hrs by SRB assay; assay type: functional
DU-145 = test: Anticancer activity against human DU-145 cells assessed as total cell growth inhibition incubated for 48 hrs by SRB assay; assay type: functional
[21] = Cytotoxicity against human WI-38 cells assessed as cell growth inhibition incubated for 48 hrs by SRB assay; assay type: toxicity, cell-based
HOP-92 = test: Anticancer activity against human HOP-92 cells assessed as cell growth inhibition incubated for 48 hrs by SRB assay; assay type: functional
UO-31 = test: Anticancer activity against human UO-31 cells assessed as total cell growth inhibition incubated for 48 hrs by SRB assay; assay type: functional
OVCAR-8 = test: Anticancer activity against human OVCAR-8 cells assessed as total cell growth inhibition incubated for 48 hrs by SRB assay; assay type: functional
SNB-19 [22] = test: Anticancer activity against human SNB-19 cells assessed as total cell growth inhibition incubated for 48 hrs by SRB assay; assay type: functional
UACC-257 = test: Anticancer activity against human UACC-257 cells assessed as total cell growth inhibition incubated for 48 hrs by SRB assay; assay type: functional
HCT-15 [23] = test: Anticancer activity against human HCT-15 cells assessed as cell growth inhibition incubated for 48 hrs by SRB assay; assay type: functional

## COc1cc2cc(Oc3ccc(NC(=O)Nc4cc(C(F)(F)F)cc(C(F)(F)F)c4)cc3)c(C)nc2cc1OCCN1CCOCC1
A549 [1]
  TGI: 7.23 µM
HT-29
  GI50: 1.75 µM
HCT-116
  TGI: 5.33 µM
OVCAR-5 [2]
  GI50: 2.18 µM
M14
  TGI: 5.88 µM
[3]
  inhibition: 16.4%
NCI-H226 [4]
  TGI: 6.53 µM
BT-549 [5]
  TGI: 7.35 µM
TK-10
  TGI: 12.5 µM
SF-295 [6]
  GI50: 1.14 µM
A549 [7]
  GI50: 1.72 µM
MDA-MB-435
  GI50: 1.9 µM
[8]
  inhibition: 4.5%
UACC-62 [9]
  TGI: 6.9 µM
SK-OV-3
  TGI: 8.5 µM
SN12C
  GI50: 1.49 µM
BT-549 [10]
  GI50: 1.87 µM
COLO 205
  GI50: 1.02 µM
KM12
  GI50: 1.53 µM
OVCAR-5 [11]
  TGI: 7.97 µM
SF-295 [12]
  TGI: 2.92 µM
NCI-H226 [13]
  GI50: 1.6 µM
HCT-15 [14]
  TGI: 2.77 µM
CAKI-1
  TGI: 5.68 µM
MDA-MB-231
  GI50: 1.7 µM
PC-3
  TGI: 5.16 µM
[15]
  inhibition: 26.9%
UACC-62 [16]
  GI50: 1.67 µM
SF-268
  TGI: 8.06 µM
SNB-19 [17]
  GI50: 1.88 µM
NCI-H522
  TGI: 7.29 µM
EKVX
  GI50: 1.64 µM
[18]
  inhibition: 1.04%
HOP-62
  GI50: 2.2 µM
HL-60
  GI50: 1.62 µM
MOLT-4
  TGI: 4.29 µM
SK-MEL-5 [19]
  TGI: 1.66 µM
Malme-3M
  GI50: 1.2 µM
OVCAR-4
  TGI: 6.95 µM
SK-MEL-5 [20]
  GI50: 0.89 µM
T47D
  GI50: 2.04 µM
DU-145
  TGI: 7.05 µM
[21]
  GI50 at 48 h: > 20 µM
HOP-92
  GI50: 0.9 µM
UO-31
  TGI: 4.06 µM
OVCAR-8
  TGI: 12.8 µM
SNB-19 [22]
  TGI: 7.42 µM
UACC-257
  TGI: 4.24 µM
HCT-15 [23]
  GI50: 1.1 µM
